According to US7678917B2, “Factor Xa inhibitors” (Hoffman-La Roche Inc., priority 2005, dated 2010):

Target: T1, human factor Xa (Homo sapiens, UniProt P00742)
T1 construct: purchased Enzyme Research Laboratories
Experiment: chromogenic peptide substrate assay, inhibition of factor Xa
Assay type: biochemical
Details: human factor Xa 3 nM, chromogenic substrate S-2222, pH 7.8, room temperature; apparent Ki from IC50 by Cheng-Prusoff
Experimental: Factor Xa activity was measured spectrophotometrically in microtiter plates in a final volume of 150 μl using the following conditions: Inhibition of human factor Xa (Enzyme Research Laboratories) was tested at an enzyme concentration of 3 nM using the chromogenic substrate S-2222 (Chromogenix AB, Mölndal, Sweden) at […]. The reaction kinetics of the enzyme and the substrate were linear with both time and the enzyme concentration. The inhibitors were dissolved in DMSO and tested at various concentrations up to 100 μM. The inhibitors were diluted using HNPT buffer consisting of HEPES 100 mM, NaCl 140 mM, PEG 6000 0.1% and Tween 80 0.02%, pH 7.8. The cleavage of S-2222 by human factor Xa was followed at 405 nm for 5 minutes at room temperature. The velocity of the reaction was determined by the autoreader from the slope of the linear regression fit to 7 time points (1 minute). The initial velocity for each inhibitor concentration was determined by the slope of at least 4 time points in the linear phase by a linear regression fit […]. Apparent dissociation constants Ki were calculated according to Cheng and Prusoff [Cheng, Y. C.; Prusoff, W. H. Relationship between the inhibition constant (Ki) and the concentration of the inhibitor that causes 50 percent inhibition (IC50) of an enzyme reaction. Biochem. Pharmacol. 1973, 22, 3099-3108.] based on the IC50 and the respective Km, determined previously (Ki=IC50/(1+S/Km)). […] [Lottenberg R, Hall J A, Blinder M, Binder E P, Jackson C M., The action of thrombin on peptide p-nitroanilide substrates. Substrate selectivity and examination of hydrolysis under different reaction conditions. Biochim Biophys Acta. 1983 Feb. 15; 742(3):539-57]. According to Eadie [Eadie G. S. The inhibition of cholinesterase by physostigmine and prostigmine. J. Biol. Chem. 1942, 146, 85-93.], the Km for S-2222 amounted to 613 μM.

T1 sequence (P00742 235-488 limits assumed): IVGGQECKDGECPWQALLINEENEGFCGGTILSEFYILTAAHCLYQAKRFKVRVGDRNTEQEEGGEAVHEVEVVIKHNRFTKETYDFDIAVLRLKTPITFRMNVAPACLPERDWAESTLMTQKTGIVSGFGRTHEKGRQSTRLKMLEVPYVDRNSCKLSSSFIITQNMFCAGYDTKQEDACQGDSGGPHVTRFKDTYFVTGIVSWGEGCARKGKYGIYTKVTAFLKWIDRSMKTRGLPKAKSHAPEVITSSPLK
T1 sequence (P00742 41-179 partner limits assumed): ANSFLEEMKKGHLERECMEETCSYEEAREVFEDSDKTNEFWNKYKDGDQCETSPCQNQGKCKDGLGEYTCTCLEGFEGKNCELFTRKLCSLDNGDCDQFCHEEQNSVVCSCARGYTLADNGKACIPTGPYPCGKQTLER

SMILES | Ki [µM]
CCO[C@H]1C[C@H](C(=O)Nc2ccc(-n3ccccc3=O)cc2F)C[C@@H]1NC(=O)c1ccc(Cl)s1 [Example 13B, 5-chloro-thiophene-2-carboxylic acid {(1S,2S,4R)-2-ethoxy-4-[2-fluoro-4-(2-oxo-2H-pyridin-1-yl)-phenylcarbamoyl]-cyclopentyl}-amide] | 0.006
O=C(NC[C@H]1C[C@H](C(=O)Nc2ccc(-n3ccccc3=O)cc2F)C[C@@H]1O)c1ccc(Cl)s1 (racemic) [Example 15C] | 0.03
O=C(N[C@H]1C[C@@H](C(=O)Nc2ccc(-n3ccncc3=O)cc2F)C[C@@H]1O)c1ccc(Cl)s1 [Example 5, 5-chloro-thiophene-2-carboxylic acid {(1S,2S,4R)-4-[2-fluoro-4-(2-oxo-2H-pyrazin-1-yl)-phenylcarbamoyl]-2-hydroxy-cyclopentyl}-amide] | 0.018
O=C(N[C@H]1C[C@@H](C(=O)Nc2ccc(-n3ccccc3=O)cc2F)C[C@@H]1O)c1ccc(Cl)s1 [Example 1C, 5-chloro-thiophene-2-carboxylic acid {(1S,2S,4R)-4-[2-fluoro-4-(2-oxo-2H-pyridin-1-yl)-phenylcarbamoyl]-2-hydroxy-cyclopentyl}-amide] | 0.015
